Source: article PMC6774960, “Design, synthesis and biological evaluation of a series of new resveratrol analogues as potential anti-cancer agents” (Royal Society Open Science, 2019)

Columns and labels:
[1] = MTT cytotoxicity test, Vero; format: cell-based, African green monkey; settings: African green monkey, Vero cells (normal African green monkey kidney), average of three determinations
Protocol: (§1) Vero cells are non-tumorigenic cell lines and are important raw materials as the research and production of biological products. Vero cells show low tumorigenicity and had been approved for use in the production of human virus vaccines. Thus, Vero cells were chosen as a control for cytotoxicity. All compounds were evaluated for their cell toxicity against Vero and normal human hepatocytes cells line (LO2) using MTT assays.
(§2) The anti-proliferative and cytotoxicity activity was determined using MTT assay. Human cervical carcinoma HeLa cells, human hepatocellular carcinoma HepG2 cells, human lung carcinoma A549 cells were representative in the anti-proliferation assay, which were obtained from the Shanghai Institute of Cell Biology (Shanghai, China). Normal African green monkey kidney Vero cells were a gift from Dr Xiumiao He at Guangxi University for Nationalities. Normal human hepatocytes LO2 cells were a gift from Dr Xing Lin at Guangxi Medical University. The HepG2, Hela, LO2 and Vero cells were cultured in Dulbecco's modified Eagle's medium (DMEM, Gibco) and the A549 cells were cultured in RPMI1640 (Gibco), both media were supplemented with 10% fetal calf serum and antibiotics (100 IU ml^−1 penicillin, 100 IU ml^−1 streptomycin; Amresco).
(§3) Cells were seeded in 96-well microtiter plates at a density of 1 × 10^4 cells well^−1 and incubated with different concentrations of compound (6.25, 12.50, 25.00, 50.00 to 100.00 µM), cisplatin and paclitaxel in RPMI-1640 or DMEM at 37°C with 5% CO2. After 24 h, cell morphology was observed using a light microscope, and then 20 µl of MTT solution (5 mg ml^−1) was added to the well and incubated for 4 h, then cell survival was determined by measuring the optical density (OD) absorbance at a wavelength of 570 nm using an ELISA microplate reader. The inhibition rate (IR) following each compound treatment was determined by the following equation: IR (%) = (1 − ODexp/ODcon) × 100%, where ODexp and ODcon are the OD of the treated and untreated cells, respectively. Cisplatin and paclitaxel were used as positive control drugs.

[2] = MTT cytotoxicity test, LO2; format: cell-based, human; settings: human, LO2 cells (normal human hepatocytes), average of three determinations
Protocol: as §1, §2, §3

HeLa cells = assay: MTT anti-proliferation assay, HeLa; format: cell-based, human; settings: Homo sapiens, HeLa, 24 h, average of three determinations
Protocol: (§4) The 22 synthesized resveratrol compounds were evaluated for anti-proliferative activities against three human cancer cell lines, including HepG2, A549 and HeLa cells, using 3-[4,5-dimethylthiazol-2-yl]-2,5 diphenyl tetrazolium bromide (MTT) assays. Paclitaxel, a well-known tubulin inhibitor, was used as a positive control.
as §2
After 24 h, cell morphology was observed using a light microscope, and then 20 µl of MTT solution (5 mg ml^−1) was added to the well and incubated for 4 h, then cell survival was determined by measuring the optical density (OD) absorbance at a wavelength of 570 nm using an ELISA microplate reader. […] Cisplatin and paclitaxel were used as positive control drugs.

HepG2 cells = assay: MTT anti-proliferation assay, HepG2; format: cell-based, human; settings: Homo sapiens, HepG2, 24 h, average of three determinations
Protocol: as §4, with “control. […] Therefore, the inhibitory activity of the compounds depended not only on the 2-position substitution of acrylic acid, but also on the 3-position substitution of acrylic acid.” for “control.”
as §2, §3

A549 cells = assay: MTT anti-proliferation assay, A549; format: cell-based, human; settings: Homo sapiens, A549, 24 h, average of three determinations
Protocol: as §4, with “control. […] Therefore, the inhibitory activity of the compounds depended not only on the 2-position substitution of acrylic acid, but also on the 3-position substitution of acrylic acid.” for “control.”
as §2, §3

Compound	CC50 at 24 h [1] [µM]	CC50 at 24 h [2] [µM]	IC50 (HeLa cells) [µM]	IC50 (HepG2 cells) [µM]	IC50 (A549 cells) [µM]	melting point [°C]
COc1cc(C(=Cc2ccc(Cl)cc2Cl)C(=O)O)cc(OC)c1OC [compound c, 3-(2,4-dichlorophenyl)-2-(3,4,5-trimethoxyphenyl) acrylic acid]	71 ± 2	> 100	46 ± 3	30 ± 3	30 ± 1	228
COc1cc(C(=Cc2ccc(Cl)c(Cl)c2)C(=O)O)cc(OC)c1OC [compound a, 3-(3,4-dichlorophenyl)-2-(3,4,5-trimethoxyphenyl) acrylic acid]	28.2 ± 0.5	27 ± 1	27 ± 2	50 ± 4	34 ± 2	233 to 235
COc1cc(C(=Cc2ccc(C(F)(F)F)cc2)C(=O)O)cc(OC)c1OC [compound j, 3-(4-(trifluoromethyl)phenyl)-2-(3,4,5-trimethoxyphenyl) acrylic acid]	> 100	> 100	19 ± 2	56.66 ± 0.02	18 ± 3	259
COc1cc(C(=Cc2ccccc2C(F)(F)F)C(=O)O)cc(OC)c1OC [compound i, 3-(2-(trifluoromethyl)phenyl)-2-(3,4,5-trimethoxyphenyl) acrylic acid]	> 100	> 100	41 ± 4	42 ± 2	32 ± 2	160 to 162
COc1ccc(C(=Cc2cccc(C(F)(F)F)c2)C(=O)O)cc1 [compound q, 2-(4-methoxyphenyl)-3-(3-(trifluoromethyl)phenyl) acrylic acid]	> 100	98 ± 2	14 ± 1	19 ± 2	16 ± 3	192 to 194
COc1cc(C(=Cc2cc(Cl)ccc2[N+](=O)[O-])C(=O)O)cc(OC)c1OC [compound m, 3-(5-chloro-2-nitrophenyl)-2-(3,4,5-trimethoxyphenyl) acrylic acid]	> 100	> 100	60 ± 1	> 100	34 ± 2	167 to 169
COc1cc(C(=Cc2ccc(OC(F)(F)F)cc2)C(=O)O)cc(OC)c1OC [compound f, 3-(4-(trifluoromethoxy)phenyl)-2-(3,4,5-trimethoxyphenyl) acrylic acid]	> 100	> 100	20 ± 3	18.7 ± 0.9	19 ± 2	208
COc1ccc(C(=Cc2c(Cl)cccc2Cl)C(=O)O)cc1 [compound o, 3-(2,6-dichlorophenyl)-2-(4-methoxyphenyl) acrylic acid]	> 100	> 100	10 ± 2	48 ± 5	21.3 ± 0.7	319 to 320
COc1cc(C(=Cc2cc([N+](=O)[O-])ccc2Cl)C(=O)O)cc(OC)c1OC [compound d, 3-(2-chloro-5-nitrophenyl)-2-(3,4,5-trimethoxyphenyl) acrylic acid]	> 100	93 ± 2	62 ± 3	> 100	> 100	247 to 248
COc1cc(C(=Cc2cccc(OC(F)(F)F)c2)C(=O)O)cc(OC)c1OC [compound g, 3-(3-(trifluoromethoxy)phenyl)-2-(3,4,5-trimethoxyphenyl) acrylic acid]	> 100	> 100	73 ± 5	24 ± 2	14 ± 4	156 to 157
COc1cc(C(=Cc2cccc(C(F)(F)F)c2)C(=O)O)cc(OC)c1OC [compound h, 3-(3-(trifluoromethyl)phenyl)-2-(3,4,5-trimethoxyphenyl) acrylic acid]	> 100	75 ± 4	26 ± 4	47 ± 4	32 ± 5	162 to 164
COc1cc(C(=Cc2c(Cl)ccc(Cl)c2Cl)C(=O)O)cc(OC)c1OC [compound n, 3-(2,3,6-trichlorophenyl)-2-(3,4,5-trimethoxyphenyl) acrylic acid]	63 ± 2	77 ± 1	20 ± 2	79 ± 4	27.2 ± 0.9	203 to 204
COc1cc(C(=Cc2cc(C(F)(F)F)ccc2Cl)C(=O)O)cc(OC)c1OC [compound k, 3-(2-chloro-5-(trifluoromethyl)phenyl)-2-(3,4,5-trimethoxyphenyl) acrylic acid]	71 ± 2	88 ± 2	> 100	100 ± 0.8	> 100	258
COc1cc(C(=Cc2ccc(OC)c(OC)c2Cl)C(=O)O)cc(OC)c1OC [compound l, 3-(2-chloro-3,4-dimethoxyphenyl)-2-(3,4,5-trimethoxyphenyl) acrylic acid]	> 100	64 ± 2	89 ± 4	> 100	> 100	171 to 173
COc1cc(C(=Cc2c(Cl)cccc2Cl)C(=O)O)cc(OC)c1OC [compound b, 3-(2,6-dichlorophenyl)-2-(3,4,5-trimethoxyphenyl) acrylic acid]	> 100	92 ± 2	32 ± 3	74 ± 4	46 ± 3	217 to 218
COc1ccc(C=C(C(=O)O)c2cc(C)cc(C)c2)cc1 [compound v, 2-(3,5-dimethylphenyl)-3-(4-methoxyphenyl) acrylic acid]	> 100	96 ± 6	51.25 ± 0.01	100 ± 1	61 ± 3	198 to 200
COc1ccc(C(=Cc2ccc(OC(F)(F)F)cc2)C(=O)O)cc1 [compound p, 2-(4-methoxyphenyl)-3-(4-(trifluoromethoxy)phenyl) acrylic acid]	93 ± 3	84 ± 2	5.1 ± 0.8	7.7 ± 0.3	14 ± 2	159 to 160
COc1ccc(C(=Cc2c(Cl)ccc(Cl)c2Cl)C(=O)O)cc1 [compound u, 2-(4-methoxyphenyl)-3-(2,3,6-trichlorophenyl) acrylic acid]	38.6 ± 0.7	35 ± 1	> 100	> 100	> 100	174
COc1cc(C(=Cc2ccccc2OC(F)(F)F)C(=O)O)cc(OC)c1OC [compound e, 3-(2-(trifluoromethoxy)phenyl)-2-(3,4,5-trimethoxyphenyl) acrylic acid]	82 ± 2	> 100	61 ± 3	> 100	> 100	164
COc1ccc(C(=Cc2ccc(OC)c(OC)c2Cl)C(=O)O)cc1 [compound t, 3-(2-chloro-3,4-dimethoxyphenyl)-2-(4-methoxyphenyl) acrylic acid]	85 ± 1	87 ± 2	24 ± 2	93 ± 3	> 100	202
CC(=O)O[C@H]1C(=O)[C@@]2(C)[C@H]([C@H](OC(=O)c3ccccc3)[C@]3(O)C[C@H](OC(=O)[C@H](O)[C@@H](NC(=O)c4ccccc4)c4ccccc4)C(C)=C1C3(C)C)[C@]1(OC(C)=O)CO[C@@H]1C[C@@H]2O [paclitaxel, reference compound]	98 ± 1	> 100	0.7 ± 0.1	0.39 ± 0.03	0.17 ± 0.03	
